{"source": "patent US20240165275A1", "about": "“STABLE FORMULATIONS OF INDOCYANINE GREEN” (PROVEPHARM LIFE SOLUTIONS, priority 2021, published 2024)", "origin": "cited, not measured here", "key": {"[1]": {"conditions": "stored at 4° C. in the dark"}, "[2]": {"conditions": "after 10 hours of storage in water and direct light"}}}
{"smiles": "CC1(C)C(/C=C/C=C/C=C/C=C2\\N(CCCCS(=O)(=O)[O-])c3ccc4ccccc4c3C2(C)C)=[N+](CCCCS(=O)(=O)[O-])c2ccc3ccccc3c21.[Na+]", "note": "[ICG, Indocyanine green]", "values": [{"measurement": "stability on storage", "setting": "[1]", "result": "stable for three days"}, {"measurement": "fluorescence intensity lost", "setting": "[1]; three days", "result": 20, "unit": "%"}, {"measurement": "reduction of absorbance at spectral peak", "setting": "[2]", "result": 10, "unit": "%"}]}
